Assay results taken from patent US7781418B2, “Composition for treating bone disorders” (Isis Innovation Ltd., priority 2006, dated 2010).
Where a name gives a salt, the structure may show the parent alone.

How the values were obtained:
[1] = target: T1, farnesyl pyrophosphate synthase (FPPS) (Homo sapiens, UniProt P14324); experiment: farnesyl pyrophosphate synthase (FPPS) inhibition assay; type: biochemical
T1 sequence (P14324 1-419): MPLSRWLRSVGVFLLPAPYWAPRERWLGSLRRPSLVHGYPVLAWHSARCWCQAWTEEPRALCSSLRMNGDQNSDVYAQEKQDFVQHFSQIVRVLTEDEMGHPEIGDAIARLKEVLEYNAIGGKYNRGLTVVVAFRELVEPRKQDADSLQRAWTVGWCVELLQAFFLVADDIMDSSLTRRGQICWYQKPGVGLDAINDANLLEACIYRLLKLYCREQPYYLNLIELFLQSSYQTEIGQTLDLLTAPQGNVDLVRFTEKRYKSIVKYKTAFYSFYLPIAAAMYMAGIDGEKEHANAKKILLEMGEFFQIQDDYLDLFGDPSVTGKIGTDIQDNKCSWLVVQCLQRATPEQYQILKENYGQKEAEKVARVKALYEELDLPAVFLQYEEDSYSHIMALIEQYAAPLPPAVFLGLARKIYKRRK
Experimental: The activity of the racemic mixture, is approximately 42 nM.

[2] = test system: bone resorption and mineralization; experiment: Schenk Model: in vivo bone resorption inhibition and mineralization inhibition, lowest effective dose; details: for Lowest Effective Dose, Bone Mineral Density (BMD) / Lowest Effective Dose, Bone Mineral Content (BMC): head-to-head comparison of all three compounds; for Lowest Effective Dose, Bone Mineral Content (BMC): highest dose tested 0.1

Compound | IC50 [1] | activity in the Schenk assay relative to enantiomer (1S,6R) and racemic mixture ([2]; compared with (1S,6R) enantiomer and corresponding racemic mixture) | Lowest Effective Dose, Bone Mineral Density (BMD) [2] | Lowest Effective Dose, Bone Mineral Content (BMC) [2]
O=P(O)(O)C1(P(=O)(O)O)C[C@@H]2CCCN[C@@H]2C1 [1R,6S Isomer, (1R,6S)-2-Azabicyclo[4.3.0]nonane-8,8-diphosphonic acid hydrochloride salt] | 15 nM | more active | 0.01 mg P/kg | 0.01 mg P/kg
O=P(O)(O)C1(P(=O)(O)O)CC2CCCNC2C1 (racemic) [Racemic Mixture] | ~42 nM | – | 0.03 mg P/kg | 0.03 mg P/kg
O=P(O)(O)C1(P(=O)(O)O)C[C@H]2CCCN[C@H]2C1 [1S,6R Isomer] | 359 nM | – | 0.1 mg P/kg | >0.1^2^ mg P/kg
